The values below come from patent publication US20090105119A1, “ASPARAGINE-10-SUBSTITUTED NONADEPSIPEPTIDES” (priority 2006, published 2009).

A short description of data set [1]: Determination of the free fraction (fu) in plasma. The format is in vitro ADME, rat. Particulars: pH 7.4. Here is the method:
(§1) Principle of the Determination of the Free Fraction Via Transil:
(§2) The method described here for determining the free fraction (fu) of a test substance is divided into 2 parts:
(§3) a) Determination of the Transil®/buffer distribution ratio (MAbuffer) by incubating the test substance in a Transil®-buffer (pH 7.4) dispersion and subsequently determining the concentration in the dispersion and in the buffer supernatant.
(§4) b) Determination of the Transil®/plasma distribution ratio (MAplasma) by incubating the test substance in a Transil®-plasma dispersion and subsequently determining the concentration in the dispersion and in the plasma.
(§5) The quotient of the two distribution ratios yields fu.
(§6) In the case of highly protein-bound substances, the plasma is usually diluted with isotonic phosphate buffer (pH 7.4) and then suspended with Transil®. The determination of fu′ (free fraction in diluted plasma) in this diluted protein solution takes place in analogy to the determination of fu. The free fraction in undiluted plasma is calculated from fu′ and the dilution factor.
(§7) Concerning this method, compare also: Schuhmacher, Joachim; Kohlsdorfer, Christian; Buehner, Klaus; Brandenburger, Tim; Kruk, Renate, “High-throughput determination of the free fraction of drugs strongly bound to plasma proteins.” Journal of Pharmaceutical Sciences 2004, 93, 816-830.
(§8) Determination of the Membrane Affinity of a Test Substance after Distribution Between Transil® and Buffer (MAbuffer):
(§9) All incubations are carried out in suitable glass vessels, e.g. glass vials, ground-socket test tubes. In general the total volume is 0.5-5 ml, and the Transil® volume 10-100 μl. In cases where the membrane affinities are expected to be high, the Transil® dispersion can be diluted up to 20-fold with phosphate buffer of pH 7.4, e.g. Dulbecco's PBS. Phosphate buffer of pH 7.4 is provided in the incubation vessels, and the Transil® is pipetted in, after thorough mixing. The test substance is pipetted in at a concentration of, for example, 200 ng/mL, n=6. The proportion of organic solvent should be <2%. The mixtures are incubated at room temperature for 30 min, e.g. on a mini-shaker at an angle of about 45°, at about 400 rpm. In order to determine the 100% value at least one aliquot of, for example, 100 μl, is removed and the remaining mixture is centrifuged at about 1800 g for about 10 min. At least 2 aliquots (e.g. 100 μl) of the supernatant are removed from each sample for the determination of the concentration.
(§10) Determination of MAplasma in Undiluted or Diluted Plasma:
(§11) The total incubation volume and the added volume of Transil® depend on the expected free fraction. In general the total volume is 0.5-1 ml, and the Transil® volume is 10-100 μl. In cases where the free fractions are very low, the plasma of the species to be investigated is diluted, with isotonic buffer solution, pH 7.4, e.g. 10-400-fold, and the Transil® is then added. The subsequent procedure takes place as described above for the determination of the MAbuffer values. […]
(§12) The plasma of the species to be investigated is filtered through a semipermeable membrane. The substance concentration in the filtrate is measured and the free fraction fu is calculated therefrom. […] The substance concentration in the ultrafiltrate (Cu; unbound substance concentration) and in the plasma before centrifugation (C; total substance concentration) is measured. The free fraction is calculated by the formula: fu (%)=Cu/C*100.

A short description of data set [2]: Determination of the free fraction (fu) in plasma. The data set is classed as in vitro ADME. The following applies: human. The method, then: as §1, §2, §3, §4, §5, §6, §7, §8, §9, §10, §11, §12
Data set [3] relates to Staphylococcus aureus 133. The data set is classed as cell-based. The following applies: Isosensitest medium, 10^5 microbes per ml, 37° C., 18-24 hours. Here is the method: (§13) Determination of the Minimum Inhibitory Concentration (MIC):
(§14) The MIC is determined in the liquid dilution test in accordance with the NCCLS guidelines. Overnight cultures of Staphylococcus aureus 133, Enterococcus faecalis 27159, E. faecium 4147 and Streptococcus pneumoniae G9a are incubated with the described test substances in a 1:2 dilution series. The MIC determination is carried out with a cell count of 10^5 microbes per ml in Isosensitest medium (Difco, Irvine/USA), with the exception of S. pneumoniae which is tested in BHI broth (Difco, Irvine/USA) with 10% bovine serum with a cell count of 10^6 microbes per ml. The cultures are incubated at 37° C. for 18-24 hours, S. pneumoniae in the presence of 10% CO2.
(§15) The MIC is defined as the lowest concentration of each substance at which no visible bacterial growth occurs any longer. The MIC values are reported in μg/ml.

The test system of data set [4] is Streptococcus pneumoniae G9a. The format is cell-based. Particulars: BHI broth with 10% bovine serum, 10^6 microbes per ml, 10% CO2, 37° C., 18-24 hours. The method, then: as §13, §14, §15
Data set [5] deals with E. faecalis ICB 27159. The format is cell-based, Enterococcus faecalis. The following applies: Isosensitest medium, 10^5 microbes per ml, 37° C., 18-24 hours. Here is the method:
as §13, §14, §15

Setting [6] is: rat plasma, read-out: Free fraction (rat plasma).
The mark [7] stands for this setting: read-out: Free fraction (human plasma).

Values after ≈ are worked out from the molar mass of the structure shown. Like-named read-outs stand apart in the source and are kept apart here. *1 amine or outer side, *2 acyl side, *3 side chain or, on linkers, in order; H or OH if unused. Where a SMILES comes first, the peptide text is derived from it. Bridges are numbered along the chain shown (N, C = ends). [ ]: non-standard residue; d: D form. Phe(3R-OH) = O=C([C@@H](N[*:1])[C@H](O[*:3])c1ccccc1)[*:2]; X8 = O=C(NCCCN1CCOCC1)[C@@H](O)[C@H](N[*:1])C(=O)[*:2]; X7 = O=C(NCc1ccccc1)[C@@H](O)[C@H](N[*:1])C(=O)[*:2]; X2 = O=C(NCCO)[C@@H](O)[C@H](N[*:1])C(=O)[*:2]; X1 = CNC(=O)[C@@H](O)[C@H](N[*:1])C(=O)[*:2]; Asn(3S-OH) = NC(=O)[C@@H](O)[C@H](N)C(=O)O; Leu(3R-OH) = CC(C)[C@@H](O)[C@H](N)C(=O)O; aThr = C[C@H](O)[C@H](N)C(=O)O

`CC[C@H](C)[C@@H]1NC(=O)[C@@H](CCCNC(=N)N)NC(=O)[C@H](CC(C)C)NC(=O)[C@H]([C@H](O)C(C)C)NC(=O)[C@@H](NC(=O)[C@H](CC(C)C)NC(=O)[C@H](N)CC(C)C)[C@@H](c2ccccc2)OC(=O)[C@H](CO)NC(=O)[C@H]([C@H](O)C(N)=O)NC(=O)CNC(=O)[C@H]([C@H](C)O)NC1=O` [1a (Lysobactin), D-Leucyl-N^1-{(3S,6S,12S,15S,18R,21S,24S,27S,28R)-6-[(1S)-2-amino-1-hydroxy-2-oxo-ethyl]-18-(3-{[amino(imino)methyl]amino}propyl)-12-[(1S)-1-hydroxyethyl]-3-(hydroxy-methyl)-24-[(1R)-1-hydroxy-2-methylpropyl]-21-isobutyl-15-[(1S)-1-methylpropyl]-2,5,8,11,14,17,20,23,26-nonaoxo-28-phenyl-1-oxa-4,7,10,13,16,19,22,25-octaazacyclo-octacosan-27-yl}-L-leucinamide Bistrifluoroacetate, reference compound] (H-[dL]L[Phe(3R-OH)][Leu(3R-OH)]L[dR]I[aThr]G[Asn(3S-OH)]S; ester 3-C) came in with a fraction unbound at 30 min, 200 ng/mL in data set [1] (rat, plasma) of 0.0076. In data set [2], this compound registered a fraction unbound at 30 min of 0.0081.

`CC[C@H](C)[C@@H]1NC(=O)[C@@H](CCCNC(=N)N)NC(=O)[C@H](CC(C)C)NC(=O)[C@H]([C@H](O)C(C)C)NC(=O)[C@@H](NC(=O)[C@H](CC(C)C)NC(=O)[C@H](N)CC(C)C)[C@@H](c2ccccc2)OC(=O)[C@H](CO)NC(=O)[C@H]([C@H](O)C(=O)NCCO)NC(=O)CNC(=O)[C@H]([C@H](C)O)NC1=O` [Example 2, N^4.10-(2-Hydroxyethyl)-D-leucyl-L-leucyl-[(3R)-3-hydroxy-L-phenylalanyl]-[(3R)-3-hydroxy-L-leucyl]-L-leucyl-D-arginyl-L-isoleucyl-L-allothreonylglycyl-[(3S)-3-hydroxy-L-asparaginyl]-L-serine C^1.11—O^3.3-lactone Bistrifluoroacetate] (H-[dL]L[Phe(3R-OH)][Leu(3R-OH)]L[dR]I[aThr]G[X2]S; ester 3-C): in data set [3], the “MIC S. aureus 133” value amounted to 1 µg/mL (≈ 0.757 µM). The “MIC S. pneumoniae G9a” value in data set [4] stood at 2 µg/mL (≈ 1.51 µM). Besides, the “MIC E. faecalis ICB 27159” value in data set [5] came to 16 µg/mL (≈ 12.1 µM). In addition, in data set [1] (setting [6]), the fraction unbound at 30 min, 200 ng/mL came out at 0.137. Also, in data set [2] (setting [7]), the fraction unbound at 30 min is 0.099.

Regarding `CC[C@H](C)[C@@H]1NC(=O)[C@@H](CCCNC(=N)N)NC(=O)[C@H](CC(C)C)NC(=O)[C@H]([C@H](O)C(C)C)NC(=O)[C@@H](NC(=O)[C@H](CC(C)C)NC(=O)[C@H](N)CC(C)C)[C@@H](c2ccccc2)OC(=O)[C@H](CO)NC(=O)[C@H]([C@H](O)C(=O)NC)NC(=O)CNC(=O)[C@H]([C@H](C)O)NC1=O` [Example 3, N^4.10-Methyl-D-leucyl-L-leucyl-[(3R)-3-hydroxy-L-phenylalanyl]-[(3R)-3-hydroxy-L-leucyl]-L-leucyl-D-arginyl-L-isoleucyl-L-allothreonylglycyl-[(3S)-3-hydroxy-L-asparaginyl]-L-serine C^1.11—O^3.3-lactone Bistrifluoroacetate] (H-[dL]L[Phe(3R-OH)][Leu(3R-OH)]L[dR]I[aThr]G[X1]S; ester 3-C), the “MIC S. aureus 133” value in data set [3] is 0.25 µg/mL (≈ 0.194 µM). Moreover, the “MIC S. pneumoniae G9a” value in data set [4] turned out to be 0.5 µg/mL (≈ 0.387 µM). For the same compound, the “MIC E. faecalis ICB 27159” value in data set [5] was determined as 2 µg/mL (≈ 1.55 µM). Moreover, the fraction unbound at 30 min, 200 ng/mL in data set [1] (setting [6]) was determined as 0.129. In addition, in data set [2] (setting [7]), the fraction unbound at 30 min turned out to be 0.051.

The compound `CC[C@H](C)[C@@H]1NC(=O)[C@@H](CCCNC(=N)N)NC(=O)[C@H](CC(C)C)NC(=O)[C@H]([C@H](O)C(C)C)NC(=O)[C@@H](NC(=O)[C@H](CC(C)C)NC(=O)[C@H](N)CC(C)C)[C@@H](c2ccccc2)OC(=O)[C@H](CO)NC(=O)[C@H]([C@H](O)C(=O)NCCCN2CCOCC2)NC(=O)CNC(=O)[C@H]([C@H](C)O)NC1=O` [Example 4, N^4.10-(3-Morpholin-4-yl-propyl)-D-leucyl-L-leucyl-[(3R)-3-hydroxy-L-phenylalanyl]-[(3R)-3-hydroxy-L-leucyl]-L-leucyl-D-arginyl-L-isoleucyl-L-allothreonylglycyl-[(3S)-3-hydroxy-L-asparaginyl]-L-serine C^1.11—O^3.3-lactone Tristrifluoroacetate] (H-[dL]L[Phe(3R-OH)][Leu(3R-OH)]L[dR]I[aThr]G[X8]S; ester 3-C) had a fraction unbound at 30 min, 200 ng/mL in data set [1] (rat, plasma) of 0.068. The fraction unbound at 30 min in data set [2] is 0.024.

With `CC[C@H](C)[C@@H]1NC(=O)[C@@H](CCCNC(=N)N)NC(=O)[C@H](CC(C)C)NC(=O)[C@H]([C@H](O)C(C)C)NC(=O)[C@@H](NC(=O)[C@H](CC(C)C)NC(=O)[C@H](N)CC(C)C)[C@@H](c2ccccc2)OC(=O)[C@H](CO)NC(=O)[C@H]([C@H](O)C(=O)NCc2ccccc2)NC(=O)CNC(=O)[C@H]([C@H](C)O)NC1=O` [Example 6, N^4.10-Benzyl-D-leucyl-L-leucyl-[(3R)-3-hydroxy-L-phenylalanyl]-[(3R)-3-hydroxy-L-leucyl]-L-leucyl-D-arginyl-L-isoleucyl-L-allothreonylglycyl-[(3S)-3-hydroxy-L-asparaginyl]-L-serine C^1.11—O^3.3-lactone Bistrifluoroacetate] (H-[dL]L[Phe(3R-OH)][Leu(3R-OH)]L[dR]I[aThr]G[X7]S; ester 3-C), the fraction unbound at 30 min, 200 ng/mL in data set [1] (rat, plasma) came out at 0.07. This compound had a fraction unbound at 30 min in data set [2] of 0.026.
